Here are results for 19 molecules from patent publication US20260199350A1, “FLAVONES, QUINOLINONES, QUINAZOLINONES, AND AURONES, AND USES IN CK2-MEDIATED DISEASES” (Salk Institute for Biological Studies, priority 2022, published 2026).

≈ marks a conversion by molar mass, not a printed value. Like-named read-outs stand apart in the source and are kept apart here.

Broadly, the solubility is the concentration that dissolves in the medium under given conditions.

The target of data set [1] is T1, CK2A1 (Homo sapiens, UniProt P68400).
T1 construct: purchased Eurofins
T1 sequence (P68400 whole entry): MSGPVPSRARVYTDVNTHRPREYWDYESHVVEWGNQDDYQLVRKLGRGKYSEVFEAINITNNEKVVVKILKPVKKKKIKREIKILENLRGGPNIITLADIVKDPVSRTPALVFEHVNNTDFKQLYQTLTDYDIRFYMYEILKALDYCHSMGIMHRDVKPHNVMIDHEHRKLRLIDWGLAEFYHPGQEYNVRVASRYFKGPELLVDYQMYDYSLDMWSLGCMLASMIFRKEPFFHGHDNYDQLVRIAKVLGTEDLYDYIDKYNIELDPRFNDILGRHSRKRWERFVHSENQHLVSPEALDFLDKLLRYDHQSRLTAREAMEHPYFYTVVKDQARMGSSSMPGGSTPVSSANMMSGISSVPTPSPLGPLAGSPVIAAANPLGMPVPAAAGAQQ
As to the kind of experiment: Radiometric kinase assay (Eurofins), CK2A1. In kind it is biochemical. The source says:
FIGS. 4A-4F characterize flavones for in vitro and in-cell CK2 inhibition. […] Representative of two independent experiments. […] Nonlinear fit was used to calculate IC50. […] Nonlinear fit was used to calculate IC50. […] Nonlinear fit was used to calculate IC50. […] Normalized to DMSO, data are representative of three independent experiments.
(§1) • ^1Radiometric kinase assay from Eurofins. Performed in astrocytes with a Promega Lumit IL-6 kit.

The target in data set [2] is T2, CK2A2 (Homo sapiens, UniProt P19784).
T2 construct: purchased Eurofins
T2 sequence (P19784 whole entry): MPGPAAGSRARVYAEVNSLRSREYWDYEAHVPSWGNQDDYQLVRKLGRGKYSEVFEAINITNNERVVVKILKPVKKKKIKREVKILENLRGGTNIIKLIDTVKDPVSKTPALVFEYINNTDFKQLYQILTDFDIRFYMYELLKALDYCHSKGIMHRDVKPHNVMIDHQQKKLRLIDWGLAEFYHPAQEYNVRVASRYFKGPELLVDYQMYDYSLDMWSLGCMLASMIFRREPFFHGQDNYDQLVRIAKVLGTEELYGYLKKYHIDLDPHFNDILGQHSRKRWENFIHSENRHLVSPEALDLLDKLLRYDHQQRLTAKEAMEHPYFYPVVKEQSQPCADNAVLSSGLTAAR
The data set can be described thus: Radiometric kinase assay (Eurofins), CK2A2. In kind it is biochemical.
Description: as §1

For data set [3], the system named is IL-6 secretion. The data set can be described thus: IL-6 secretion assay in astrocytes (Promega Lumit IL-6 kit). The data set is classed as cell-based, human. To be noted: Homo sapiens, Astrocyte. On the procedure:
IL-6 secretion assay. HCAs were plated at 20,000 cells per well in white clear bottom 96-well plates. Two to three days later, media was removed and replaced with media containing 10 ng/mL IL1B and compound dilution series. Five hours later, plates were processed using the Lumit IL-6 Assay Kit (Promega W6030) according to the manufacturer's instructions.
• ^1Radiometric kinase assay from Eurofins. Performed in astrocytes with a Promega Lumit IL-6 kit. A series of halogenated flavones was generated and assayed (Table 3).

Data set [4] is described as follows: Aqueous solubility. The data set is classed as physicochemical.
Where [5] appears, read: Table 8, quinazolinones, read-out: CK2A1 RAD IC50.
Where [6] appears, read: Table 8, quinazolinones, read-out: CK2A2 RAD IC50.
[7] abbreviates: Table 2, read-out: CK2A1 RAD IC50.
The mark [8] stands for this setting: Table 2, read-out: CK2A2 RAD IC50.
The mark [9] stands for this setting: Table 2, astrocytes, read-out: IL6-Inhib.

As for `O=c1[nH]c(-c2ccc(O)c(C(F)(F)F)c2)nc2c(Br)cccc12` [JKT.831A], the IC50 was greater than 5000 nM in data set [1] (setting [5]); greater than 5000 nM in data set [2] (setting [6]); greater than 10 µM in data set [3] (Table 8, read-out: IL6-Inhib.). Further, the solubility in data set [4] (aqueous medium (not further specified), Table 8, read-out: Aqueous Solubility) was found to be 139 µM (≈ 53.5 µg/mL).

With `O=c1cc(-c2ccc(O)c(Br)c2)oc2c(Br)cc(Cl)cc12` [JKT.714A], the IC50 in data set [1] (Table 3, halogenated flavones, read-out: CK2A1 RAD IC50) came to 12 nM; in data set [2] (Table 3, halogenated flavones, read-out: CK2A2 RAD IC50), 8 nM; in data set [3] (Table 3, read-out: IL6-Inhib.) it was 4.6 µM. The solubility in data set [4] (aqueous (not further specified), Table 3, read-out: Aqueous Solubility) was determined as 35.2 µM (≈ 15.2 µg/mL).

As to `O=C1/C(=C/c2ccc(O)c(Br)c2)Oc2c(Br)cc(Br)cc21` [JKT.634A], the IC50 stood at 22 nM in data set [1] (Table 10, aurones, read-out: CK2A1 IC50); 46 nM in data set [2] (Table 10, aurones, read-out: CK2A2 IC50); 2 µM in data set [3] (Table 10, read-out: IL6-Inhib.). In data set [1] (in words), the “Inhibition of CK2A1” value is “potent inhibition of both”. Besides, the “Inhibition of CK2A2” value in data set [2] (in words) was “potent inhibition of both”. Moreover, the solubility in data set [4] (Table 10, read-out: Solubility) was 25.5 µM (≈ 12.1 µg/mL).

As for `COc1cc(/C=C2\Oc3c(cc(Br)c(OC)c3Br)C2=O)ccc1O` [JKT.764A], the IC50 in data set [1] (Table 11, aurones, read-out: CK2A1 RAD IC50) came to 521 nM; in data set [2] (Table 11, aurones, read-out: CK2A2 RAD IC50) it was 383 nM; in data set [3] (Table 11, read-out: IL6-Inhib.), 12 µM. For the same molecule, in data set [4] (Table 11, read-out: Aqueous Solubility), the solubility was less than 0.01 µM.

As for `COc1nc(-c2cc(=O)c3cccc(Br)c3o2)ccc1O` [JKT.666A], the IC50 is 5 nM in data set [1] (setting [7]), 8 nM in data set [2] (setting [8]) and 2 µM in data set [3] (setting [9]).

As to `O=c1cc(-c2ccc(O)c(C(F)(F)F)c2)oc2c(Br)cc(Br)cc12` [JKT.460A], the IC50 is 609 nM in data set [1] (setting [7]), 129 nM in data set [2] (setting [8]) and 3 µM in data set [3] (setting [9]).

For the molecule `COc1cc(-c2nc3c(Br)cc(Br)cc3c(=O)[nH]2)ccc1O` [JKT.737B], the IC50 in data set [1] (setting [5]) was 863 nM; in data set [2] (setting [6]), 2850 nM; in data set [3] (Table 8, read-out: IL6-Inhib.) it was greater than 10 µM.

Regarding `O=C(O)c1ccc2c(c1)nc(Nc1cccc(Cl)c1)c1ccncc12` [CX-4945, silmitasertib, reference compound], the IC50 in data set [3] (astrocytes stimulated with IL1-β, after 5 hours, read-out: IC50, secretion of IL-6) turned out to be 0.315 µM.

For `COc1nc(-c2cc(=O)c3cc(Br)cc(Br)c3o2)ccc1O` [JKT.606A], the IC50 is 9 nM in data set [1] (setting [7]), 4 nM in data set [2] (setting [8]) and 3.5 µM in data set [3] (setting [9]).

For the molecule `O=c1cc(-c2cc(Cl)c(O)c(Cl)c2)oc2c(Br)cc(Br)cc12` [JKT.465A], the IC50 came out at 134 nM in data set [1] (setting [7]), 45 nM in data set [2] (setting [8]) and 4.9 µM in data set [3] (setting [9]).

As for `COc1cc(-c2cc(=O)c3cc(Br)cc(Br)c3o2)ncc1O` [JKT.77A], the IC50 in data set [1] (setting [7]) stood at 21 nM; in data set [2] (setting [8]), 19 nM; in data set [3] (setting [9]), 6.7 µM.

With `COc1cc(-c2cc(=O)c3cc(Br)c(OC)c(Br)c3o2)ccc1O` [JKT.706A], the IC50 came to 247 nM in data set [1] (setting [7]), 49 nM in data set [2] (setting [8]) and 8.6 µM in data set [3] (setting [9]).

`O=c1cc(-c2cc(F)c(O)c(F)c2)oc2c(Br)cc(Br)cc12` [JKT.461B]: the IC50 in data set [1] (setting [7]) was 76 nM; in data set [2] (setting [8]) it was 32 nM; in data set [3] (setting [9]), greater than 10 µM.

As to `COc1nc(-c2nc3c(Br)nc(Br)cc3c(=O)[nH]2)ccc1O` [JKT.976B], the IC50 in data set [1] (setting [5]) is 234 nM; in data set [2] (setting [6]), 495 nM; in data set [3] (Table 8, read-out: IL6-Inhib.), greater than 10 µM.

With `O=c1cc(-c2ccc(O)c(Br)c2)oc2c(Br)cc(Br)cc12` [JKT.464A], the values for the IC50 in data set [1] (setting [7]), in data set [2] (setting [8]) and in data set [3] (setting [9]) were 19 nM, 3 nM and 5 µM, respectively.

As for `COc1nc(-c2cc(=O)c3cc(Cl)cc(Cl)c3o2)ccc1O` [JKT.678A], the results for the IC50 in data set [1] (setting [7]), in data set [2] (setting [8]) and in data set [3] (setting [9]) were 17 nM, 8 nM and 3.6 µM, respectively.

`O=c1cc(-c2ccc(O)c(Br)c2)oc2c(Br)nc(Br)cc12` [JKT.909A]: the IC50 in data set [1] (Table 4, read-out: CK2A1 RAD IC50) is 6 nM; in data set [2] (Table 4, read-out: CK2A2 RAD IC50) it was 6 nM.

Turning to `O=c1[nH]c(-c2ccc(O)c(Cl)n2)nc2c(Br)cc(Br)cc12` [JKT.956A], the IC50 in data set [1] (setting [5]) amounted to 132 nM; in data set [2] (setting [6]), 105 nM.

In the case of `COc1ccc2c(c1Br)O/C(=C\c1ccc(O)c(C3CC3)c1)C2=O` [Compound 1135B], the IC50 was greater than 5000 nM in data set [1] (Table 12, read-out: CK2A1 RAD IC50) and greater than 5000 nM in data set [2] (Table 12, read-out: CK2A2 RAD IC50).
